Results reported in patent US20250099448A1, “HETEROCYCLIC COMPOUNDS” (Hoffmann-La Roche Inc., priority 2022, published 2025).

molecular target: T1, MAGL protein (Homo sapiens, UniProt Q99685); test: 2-AG assay: MAGL inhibitory activity by hydrolysis of 2-arachidonoylglycerol to arachidonic acid, followed by mass spectrometry; type: biochemical; settings: 8 μM 2-arachidonoylglycerol, 15 min preincubation, 30 min reaction at RT, RapidFire MS readout
T1 sequence (Q99685 1-303): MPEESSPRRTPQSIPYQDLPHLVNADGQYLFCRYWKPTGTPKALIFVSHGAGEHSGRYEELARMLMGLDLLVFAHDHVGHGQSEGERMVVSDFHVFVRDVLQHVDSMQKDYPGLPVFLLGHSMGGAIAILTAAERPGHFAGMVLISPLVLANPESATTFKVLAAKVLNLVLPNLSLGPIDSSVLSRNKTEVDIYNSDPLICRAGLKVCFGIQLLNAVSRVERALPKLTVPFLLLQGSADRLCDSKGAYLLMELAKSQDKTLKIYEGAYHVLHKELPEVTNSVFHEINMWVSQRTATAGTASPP
Experimental: Compounds of formula (I) were profiled for MAGL inhibitory activity by determining the enzymatic activity by following the hydrolysis of the natural substrate 2-arachidonoylglycerol (2-AG) resulting in arachidonic acid, which can be followed by mass spectrometry. This assay is hereinafter abbreviated “2-AG assay”. The 2-AG assay was carried out in 384 well polypropylene assay plates. Compound dilutions were made in 100% DMSO in a polypropylene plate in 3-fold dilution steps to give a final concentration range in the assay from 12.5 μM to […]. Compound dilutions were added to MAGL protein in assay buffer (50 mM TRIS, 1 mM EDTA, 0.01% (v/v) Tween-20, 2.5% (v/v) DMSO). After shaking, the plate was incubated for 15 min at RT. To start the reaction, 2-arachidonoylglycerol in assay buffer was added. The final concentrations in the assay was […] for MAGL protein and 8 μM 2-arachidonoylglyerol. After shaking and 30 min incubation at RT, the reaction was quenched by the addition of two assay volumes of acetonitrile containing 4 μM of d8-arachidonic acid. The amount of arachidonic acid formed was traced by an online SPE system (Agilent Rapidfire) coupled to a triple quadrupole mass spectrometer. A C18 SPE cartridge (Agilent G9205A) was used in an acetonitrile/water liquid setup. The mass spectrometer was operated in negative electrospray mode following the mass transitions 303.1→259.1 for arachidonic acid and 311.1→267.0 for d8-arachidonic acid. The activity of the compounds was calculated based on the ratio of intensities [arachidonic acid/d8-arachidonic acid].

IC50 [nM] | Structure (SMILES)
0.08 | N=S(=O)(c1cccc(CC2CC3(C2)CN(C(=O)N2CC4(CC(c5nnc(C6CC6)[nH]5)C4)C2)C3)c1)C(F)(F)F (racemic) [compound 125]
3.5 | N#Cc1cc(C(F)(F)F)ncc1OC1CCC2(C1)CN(C(=O)N1CC3(CC(c4nnc(C5CC5)[nH]4)C3)C1)C2 (racemic) [compound 154]
1.99 | CS(=O)(=O)c1ccc(OC2CCC3(C2)CN(C(=O)N2CC4(CC(c5nnc(C6CC6)[nH]5)C4)C2)C3)cc1C(F)(F)F (racemic) [compound 155]
0.18 | O=C(N1CC(c2ccc([C@H]3C[C@H](C(F)F)C3)cc2)C1)N1CC2(CC(c3nnc(C4CC4)[nH]3)C2)C1 (single isomer, unassigned) [Example 304, Trans-[6-(5-Cyclopropyl-4H-1,2,4-triazol-3-yl)-2-azaspiro[3.3]heptan-2-yl]-[3-[4-[3-(difluoromethyl)cyclobutyl]phenyl]azetidin-1-yl]methanone]
0.07 | O=C(N1CC(c2ccc([C@H]3C[C@@H](C(F)F)C3)cc2)C1)N1CC2(CC(c3nnc(C4CC4)[nH]3)C2)C1 (single isomer, unassigned) [Example 305, cis-[6-(5-Cyclopropyl-4H-1,2,4-triazol-3-yl)-2-azaspiro[3.3]heptan-2-yl]-[3-[4-[3-(difluoromethyl)cyclobutyl]phenyl]azetidin-1-yl]methanone]
410 | O=C(N1CC(OCc2ccc(C(F)(F)F)cc2F)C1)N1CC2(CC(c3nnc([C@@H](O)C(F)(F)F)[nH]3)C2)C1 (single isomer, unassigned) [Example 388]
15.2 | O=C(N1CC(OCc2ccc(C(F)(F)F)cc2F)C1)N1CC2(CC(c3nnc([C@H](O)C(F)(F)F)[nH]3)C2)C1 (single isomer, unassigned) [Example 389]
0.06 | N=[S@](=O)(c1cccc(CC2CC3(C2)CN(C(=O)N2CC4(CC(c5nnc(C6CC6)[nH]5)C4)C2)C3)c1)C(F)(F)F (single isomer, unassigned) [compound 126]
0.06 | N=[S@@](=O)(c1cccc(CC2CC3(C2)CN(C(=O)N2CC4(CC(c5nnc(C6CC6)[nH]5)C4)C2)C3)c1)C(F)(F)F (single isomer, unassigned) [compound 127]
0.16 | N=[S@@](=O)(c1ccc(CC2CC3(C2)CN(C(=O)N2CC4(CC(c5nnc(C6CC6)[nH]5)C4)C2)C3)cc1)C(F)(F)F (single isomer, unassigned) [compound 128]
0.1 | N=[S@](=O)(c1ccc(CC2CC3(C2)CN(C(=O)N2CC4(CC(c5nnc(C6CC6)[nH]5)C4)C2)C3)cc1)C(F)(F)F (single isomer, unassigned) [compound 129]
0.17 | O=C(N1CC2(CCC(Cc3ncc(F)cc3F)C2)C1)N1CC2(CC(c3nnc(C4CC4)[nH]3)C2)C1 (single isomer, unassigned) [compound 148]
0.39 | O=C(N1CC2(CCC(Cc3ncc(F)cc3F)C2)C1)N1CC2(CC(c3nnc(C4CC4)[nH]3)C2)C1 (single isomer, unassigned) [compound 149]
0.82 | O=C(N1CC2(CCC(Cc3cnc(C(F)(F)F)cn3)C2)C1)N1CC2(CC(c3nnc(C4CC4)[nH]3)C2)C1 (single isomer, unassigned) [compound 150]
0.51 | O=C(N1CC2(CCC(Cc3cnc(C(F)(F)F)cn3)C2)C1)N1CC2(CC(c3nnc(C4CC4)[nH]3)C2)C1 (single isomer, unassigned) [compound 151]
33.9 | O=C(N1CC(c2ccc(C3(C(F)(F)F)CC3)cc2)C1)N1CC2(CC(c3nnc([C@@H](O)C(F)(F)F)[nH]3)C2)C1 (single isomer, unassigned) [compound 229]
3.89 | O=C(N1CC(c2ccc(C3(C(F)(F)F)CC3)cc2)C1)N1CC2(CC(c3nnc([C@H](O)C(F)(F)F)[nH]3)C2)C1 (single isomer, unassigned) [compound 230]

IC50 [nM] | Structure (SMILES)
4.38 | O=C(N1CC(c2cnc(N3CC[C@@H](C(F)(F)F)C3)nc2)C1)N1CC2(CC(c3nc(C4CC4)n[nH]3)C2)C1 (single isomer, unassigned) [compound 265]
2.93 | O=C(N1CC(c2cnc(N3CC[C@H](C(F)(F)F)C3)nc2)C1)N1CC2(CC(c3nc(C4CC4)n[nH]3)C2)C1 (single isomer, unassigned) [compound 266]
4.93 | O=C(N1CC(c2ccc(N3CCC(O)(C(F)(F)F)C3)nc2)C1)N1CC2(CC(c3nnc(C4CC4)[nH]3)C2)C1 (single isomer, unassigned) [compound 270]
2.73 | O=C(N1CC(c2ccc(N3CCC(O)(C(F)(F)F)C3)nc2)C1)N1CC2(CC(c3nnc(C4CC4)[nH]3)C2)C1 (single isomer, unassigned) [compound 271]
5.16 | O=C(N1CC(c2ccc(N3CCC(C(F)(F)F)CC3=O)cc2)C1)N1CC2(CC(c3nnc(C4CC4)[nH]3)C2)C1 (single isomer, unassigned) [compound 279]
3.82 | O=C(N1CC(c2ccc(N3CCC(C(F)(F)F)CC3=O)cc2)C1)N1CC2(CC(c3nnc(C4CC4)[nH]3)C2)C1 (single isomer, unassigned) [compound 280]
4.59 | N=[S@](=O)(c1ccc(CC2CC3(C2)CN(C(=O)N2CC4(CC(c5nnc(C6(N)CC6)[nH]5)C4)C2)C3)cc1)C(F)(F)F (stereo in doubt) [Example 474, [6-[5-(1-aminocyclopropyl)-4H-1,2,4-triazol-3-yl]-2-azaspiro[3.3]heptan-2-yl]-[6-[[4-(trifluoromethyl-sulfonimidoyl)phenyl]methyl]-2-azaspiro[3.3]heptan-2-yl]methanone]
0.94 | O=C(N1CC(c2ccc(NC3(C(F)(F)F)CC3)nc2)C1)N1CC2(CC(c3nnc(C4CC4)[nH]3)C2)C1 [Example 1, [6-(5-cyclopropyl-4H-1,2,4-triazol-3-yl)-2-azaspiro[3.3]heptan-2-yl]-[3-[6-[[1-(trifluoromethyl)cyclopropyl]amino]-3-pyridyl]azetidin-1-yl]methanone]
0.69 | O=C(N1CC2(CC(Cc3cnc(C(F)(F)F)cn3)C2)C1)N1CC2(CC(c3nnc(C4CC4)[nH]3)C2)C1 [Example 3]
150 | O=C(N1CC2(CC(c3nnc(C4CCC4)[nH]3)C2)C1)N1CC2(CN(Cc3ccc(F)cc3F)C2)C1 [Example 158, [6-(5-cyclobutyl-4H-1,2,4-triazol-3 yl)-2-azaspiro[3.3]heptan-2-yl]-[6-[(2,4-difluorophenyl)methyl]-2,6-diazaspiro[3.3]heptan-2-yl]methanone]
9.21 | COC(=O)c1ccccc1CN1CC2(C1)CN(C(=O)N1CC3(CC(c4nnc(C5CC5)[nH]4)C3)C1)C2 [Example 171, methyl 2-[[2-[6-(5-cyclopropyl-4H-1,2,4-triazol-3-yl)-2-azaspiro[3.3]heptane-2-carbonyl]-2,6-diazaspiro[3.3]heptan-6-yl]methyl]benzoate]
502 | O=C(O)c1ccccc1CN1CC2(C1)CN(C(=O)N1CC3(CC(c4nnc(C5CC5)[nH]4)C3)C1)C2 [Example 172, 2-[[2-[6-(5-cyclopropyl-4H-1,2,4-triazol-3-yl)-2-azaspiro[3.3]heptane-2-carbonyl]-2,6-diazaspiro[3.3]heptan-6-yl]methyl]benzoic Acid]
3580 | O=C(N1CC2(CC(c3nnc(C4CC4)[nH]3)C2)C1)N1CC2(C1)CN(C(=O)C(F)(F)F)C2 [Example 217, 1-[2-[6-(5-cyclopropyl-4H-1,2,4-triazol-3-yl)-2-azaspiro[3.3]heptane-2-carbonyl]-2,6-diazaspiro[3.3]heptan-6-yl]-2,2,2-trifluoro-ethanone]
6.31 | O=C(N1CC(c2ccc(N3CCC4(COC4)C3)nc2)C1)N1CC2(CC(c3nnc(C4CC4)[nH]3)C2)C1 [Example 303, [6-(5-cyclopropyl-4H-1,2,4-triazol-3-yl)-2-azaspiro[3.3]heptan-2-yl]-[3-[6-(2-oxa-7-azaspiro[3.4]octan-7 yl)-3-pyridyl]azetidin-1-yl]methanone]
2.19 | O=C(N1CC2(CC(c3nnc(C4CC4)[nH]3)C2)C1)N1CC(O)(c2ccc(N3CC(C(F)(F)F)C3)cc2)C1 [Example 306, [6-(5-Cyclopropyl-4H-1,2,4-triazol-3 yl)-2-azaspiro[3.3]heptan-2-yl]-[3-hydroxy-3-[4-[3-(trifluoromethyl)azetidin-1-yl]phenyl]azetidin-1 yl)methanone]
79.6 | CC(C)(C(=O)O)c1cccc(OC2CN(C(=O)N3CC4(CC(c5nnc(C6CC6)[nH]5)C4)C3)C2)c1 [Example 387, 2-[3-[1-[6-(5-cyclopropyl-4H-1,2,4-triazol-3-yl)-2-azaspiro[3.3]heptane-2-carbonyl]azetidin-3-yl]oxyphenyl]-2-methyl-propanoic Acid]
